Experimental data as given in ChEMBL document CHEMBL6120969, “Distinctive Immune Signatures Driven by Structural Alterations in Desmuramylpeptide NOD2 Agonists” (J Med Chem, 2024).
Activity calls are given as the source filed them. No cut-off for these calls is given here.

Key:
PBMC [1] = assay: Immunomodulatory activity in human PBMC cells assessed as increase in IL-2 level at 2 uM incubated for 18 hrs y flow cytometry analysis; type: functional, cell-based
Summary of the method: (§1)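 Human donor PBMCs (Ficoll-Paque; 1 × 10^6 cells/mL, 500 μL, 48-well plates) were treated with compounds at 2 μM or 0.1% DMSO vehicle without LPS for 18 h at 37 °C, 5% CO2. Cytokines in cell-free supernatants were quantified with the LEGENDplex Human Essential Immune Response Panel on a flow cytometer against kit recombinant standard curves. Four independent replicates; two-way ANOVA with Tukey's test.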

PBMC [2] = assay: Immunomodulatory activity in human PBMC cells assessed as increase in LPS-induced IL-12p70 level at 2 uM incubated for 18 hrs y flow cytometry analysis; type: functional, cell-based
PBMC [3] = assay: Immunomodulatory activity in human PBMC cells assessed as increase in IL-10 level at 2 uM incubated for 18 hrs y flow cytometry analysis; type: functional, cell-based; summary of the method: as §1
PBMC [4] = assay: Immunomodulatory activity in human PBMC cells assessed as increase in LPS-induced MCP-1 level at 2 uM incubated for 18 hrs y flow cytometry analysis; type: functional, cell-based
Summary of the method: (§2)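 Peripheral blood mononuclear cells from human donors were isolated with Ficoll-Paque and plated in 48-well plates at 1 × 10^6 cells/mL, 500 μL per well. Cells received compounds at 2 μM or 0.1% DMSO together with LPS (10 ng/mL) and were kept for 18 h at 37 °C, 5% CO2. Cytokine levels in cell-free supernatants were measured by flow cytometry with the LEGENDplex Human Essential Immune Response Panel, using the kit's recombinant standard curves. Data come from four independent replicates analysed by two-way ANOVA with Tukey's test.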

PBMC [5] = assay: Immunomodulatory activity in human PBMC cells assessed as increase in LPS-induced IP-10 level at 2 uM incubated for 18 hrs y flow cytometry analysis; type: functional, cell-based; summary of the method: as §2
PBMC [6] = assay: Immunomodulatory activity in human PBMC cells assessed as increase in LPS-induced TNF-alpha level at 2 uM incubated for 18 hrs y flow cytometry analysis; type: functional, cell-based
PBMC [7] = assay: Immunomodulatory activity in human PBMC cells assessed as increase in IL-6 level at 2 uM incubated for 18 hrs y flow cytometry analysis; type: functional, cell-based; summary of the method: as §1
PBMC [8] = assay: Immunomodulatory activity in human PBMC cells assessed as increase in IL-1beta level at 2 uM incubated for 18 hrs y flow cytometry analysis; type: functional, cell-based; summary of the method: as §1
PBMC [9] = assay: Immunomodulatory activity in human PBMC cells assessed as increase in IL-12p70 level at 2 uM incubated for 18 hrs y flow cytometry analysis; type: functional, cell-based; summary of the method: as §1
PBMC [10] = assay: Immunomodulatory activity in human PBMC cells assessed as increase in LPS-induced IL-10 level at 2 uM incubated for 18 hrs y flow cytometry analysis; type: functional, cell-based; summary of the method: as §2
PBMC [11] = assay: Immunomodulatory activity in human PBMC cells assessed as increase in MCP-1 level at 2 uM incubated for 18 hrs y flow cytometry analysis; type: functional, cell-based; summary of the method: as §1
PBMC [12] = assay: Immunomodulatory activity in human PBMC cells assessed as increase in TNF-alpha level at 2 uM incubated for 18 hrs y flow cytometry analysis; type: functional, cell-based; summary of the method: as §1
PBMC [13] = assay: Immunomodulatory activity in human PBMC cells assessed as increase in LPS-induced IL-6 level at 2 uM incubated for 18 hrs y flow cytometry analysis; type: functional, cell-based; summary of the method: as §2
BMDC [14] = assay: Adjuvant activity in OVA-immunized C57BL/6J mouse BMDC cells co-cultured with mouse CD8+ T cells assessed as reduction in IFN-gamma production at 10 uM incubated for 18 hrs by flow cytometry analysis; type: functional, cell-based
PBMC [15] = assay: Immunomodulatory activity in human PBMC cells assessed as increase in LPS-induced IFN-gamma level at 2 uM incubated for 18 hrs y flow cytometry analysis; type: functional, cell-based
PBMC [16] = assay: Immunomodulatory activity in human PBMC cells assessed as increase in IL-8 level at 2 uM incubated for 18 hrs y flow cytometry analysis; type: functional, cell-based; summary of the method: as §1
PBMC [17] = assay: Immunomodulatory activity in human PBMC cells assessed as increase in IP-10 level at 2 uM incubated for 18 hrs y flow cytometry analysis; type: functional, cell-based; summary of the method: as §1
BMDC [18] = assay: Adjuvant activity in OVA-immunized C57BL/6J mouse BMDC cells co-cultured with mouse CD4+ T cells assessed as reduction in IFN-gamma production at 10 uM incubated for 18 hrs by flow cytometry analysis; type: functional, cell-based
PBMC [19] = assay: Immunomodulatory activity in human PBMC cells assessed as increase in LPS-induced IL-1beta level at 2 uM incubated for 18 hrs y flow cytometry analysis; type: functional, cell-based
PBMC [20] = assay: Immunomodulatory activity in human PBMC cells assessed as increase in IL-4 level at 2 uM incubated for 18 hrs y flow cytometry analysis; type: functional, cell-based; summary of the method: as §1
BMDC [21] = assay: Adjuvant activity in OVA-immunized C57BL/6J mouse BMDC cells assessed as increase in CD4+ T cell activation incubated for 18 hrs; type: functional, cell-based
Summary of the method: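 Dendritic cells were derived from C57BL/6 mouse bone marrow by 7 days of culture with GM-CSF, then pretreated for 18 h with compounds at 10 μM together with 50 μg/mL ovalbumin and washed. These cells (1 × 10^4/well) were co-cultured with 5 × 10^4 CFSE-labelled OT II CD4+ T cells for 72 h at 37 °C in 5% CO2. T-cell activation was assessed by flow cytometry on live Thy1.2+/CD4+ cells, using CFSE dilution and CD25 expression as readouts. Assays were run in duplicate across two independent biological replicates and analysed with paired t tests.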

PBMC [22] = assay: Cytotoxicity against human PBMC cells co-cultured with human K562 cells at 10 uM incubated for 4 hrs; type: functional, cell-based
Summary of the method: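 Killing was scored as the share of K562 cells positive for both CFSE and Sytox blue. Human PBMCs were seeded in 96-well plates at 4 × 10^5 per well and pretreated for 18 h with compounds at 10 μM, with 0.1% DMSO as vehicle. CFSE-stained K562 cells were then added at 1 × 10^4 per well (effector:target 40:1) for 4 h at 37 °C, 5% CO2, before Sytox blue staining and reading on an Attune NxT flow cytometer. Assays ran in duplicate across three independent biological replicates and were analysed by one-way ANOVA with Dunnett's test.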

BMDC [23] = assay: Adjuvant activity in OVA-immunized C57BL/6J mouse BMDC cells co-cultured with mouse CD4+ T cells assessed as increase in IL-4 production at 10 uM incubated for 18 hrs by flow cytometry analysis; type: functional, cell-based
BMDC [24] = assay: Adjuvant activity in OVA-immunized C57BL/6J mouse BMDC cells co-cultured with mouse CD4+ T cells assessed as increase in IL-2 level at 10 uM incubated for 18 hrs; type: functional, cell-based
PBMC [25] = assay: Immunomodulatory activity in human PBMC cells assessed as increase in IL-17A level at 2 uM incubated for 18 hrs y flow cytometry analysis; type: functional, cell-based; summary of the method: as §1
[26] = Cytotoxicity against human PBMC cells at 10 uM incubated for 4 hrs in presence of MDP; type: toxicity, cell-based
[27] = Cytotoxicity against human HEK-Blue hNOD2 cells assessed as metabolic activity at 10 uM incubated for 18 hes by MTT assay; type: toxicity, cell-based; settings: hek-blue hnod2, 10 µM
[28] = Cytotoxicity against human PBMC cells at 10 uM incubated for 4 hrs; type: toxicity, cell-based
Summary of the method: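 Direct cytotoxicity was scored as the fraction of Sytox blue-positive cells among human PBMCs cultured without other cells. The PBMCs were exposed to compounds at 10 μM, with 0.1% DMSO as vehicle, alongside a K562 killing assay, then stained with Sytox blue dead cell stain and run on an Attune NxT flow cytometer, with analysis in FlowJo. Each condition was tested in duplicate across three independent biological replicates, and one-way ANOVA with Dunnett's test was applied.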

BMDC [29] = assay: Adjuvant activity in OVA-immunized C57BL/6J mouse BMDC cells co-cultured with mouse CD8+ T cells assessed as increase in IL-6 production at 10 uM incubated for 18 hrs by flow cytometry analysis; type: functional, cell-based
BMDC [30] = assay: Adjuvant activity in OVA-immunized C57BL/6J mouse BMDC cells co-cultured with mouse CD4+ T cells assessed as increase in IL-9 level at 10 uM incubated for 18 hrs; type: functional, cell-based
PBMC [31] = assay: Immunomodulatory activity in human PBMC cells assessed as increase in TGF-beta1 level at 2 uM incubated for 18 hrs y flow cytometry analysis; type: functional, cell-based; summary of the method: as §1
PBMC [32] = assay: Immunomodulatory activity in human PBMC cells assessed as increase in IFN-gamma level at 2 uM incubated for 18 hrs y flow cytometry analysis; type: functional, cell-based; summary of the method: as §1
BMDC [33] = assay: Adjuvant activity in OVA-immunized C57BL/6J mouse BMDC cells co-cultured with mouse CD8+ T cells assessed as increase in IL-9 production at 10 uM incubated for 18 hrs by flow cytometry analysis; type: functional, cell-based
BMDC [34] = assay: Adjuvant activity in OVA-immunized C57BL/6J mouse BMDC cells co-cultured with mouse CD4+ T cells assessed as increase in IL-6 production at 10 uM incubated for 18 hrs by flow cytometry analysis; type: functional, cell-based

| SMILES | Activity (PBMC [1]) | Activity (PBMC [2]) | Activity (PBMC [3]) | Activity (PBMC [4]) | Activity (PBMC [5]) | Activity (PBMC [6]) | Activity (PBMC [7]) | Activity (PBMC [8]) | Activity (PBMC [9]) | Activity (PBMC [10]) | Activity (PBMC [11]) | Activity (PBMC [12]) | Activity (PBMC [13]) | Activity (BMDC [14]) | Activity (PBMC [15]) | Activity (PBMC [16]) | Activity (PBMC [17]) | Activity (BMDC [18]) | Activity (PBMC [19]) | Activity (PBMC [20]) | other results |
| --- | --- | --- | --- | --- | --- | --- | --- | --- | --- | --- | --- | --- | --- | --- | --- | --- | --- | --- | --- | --- | --- |
| CCCC(=O)Oc1ccc(/C=C/C(=O)NCC(=O)N[C@H](C(=O)N[C@H](CCC(=O)OCC)C(=O)OCC)C(C)C)cc1OC | Active | Active | Active | Active | Active | Active | Active | Active | Active | Active | Active | Active | Active | Active | Active | Active | Active | Active | Active | Active | Activity (BMDC [21]): Active; Activity (PBMC [22]): inactive; Activity (BMDC [23]): Active; Activity (BMDC [24]): Active; Activity (PBMC [25]): Active; Activity [26]: Non-toxic; Activity [27]: Non-toxic; Activity [28]: Non-toxic; Activity (BMDC [29]): Active; Activity (BMDC [30]): Active; Activity (PBMC [31]): Active; Activity (PBMC [32]): Active |
| CCOC(=O)[C@@H](CCC(=O)NC12C[C@H]3C[C@@H](C1)C[C@@H](C2)C3)NC(=O)[C@@H](NC(=O)CNC(=O)/C=C/c1ccc(O)c(OC)c1)C(C)C | Active | Active | Active | Active | Active | Active | Active | Active | Active | Active | Active | Active | Active | Active | Active | Active | Active | Active | Active | Active | Activity (BMDC [21]): Active; Activity (PBMC [22]): inactive; Activity (BMDC [23]): Active; Activity (BMDC [24]): Active; Activity (PBMC [25]): Active; Activity [26]: Non-toxic; Activity [27]: Non-toxic; Activity [28]: Non-toxic; Activity (BMDC [29]): Active; Activity (BMDC [30]): Active; Activity (BMDC [33]): Active; Activity (PBMC [31]): Active; Activity (PBMC [32]): Active; Activity (BMDC [34]): Active |
| CC/C=C\C/C=C\C/C=C\C/C=C\C/C=C\CCCC(=O)Oc1ccc(/C=C/C(=O)NCC(=O)N[C@H](C(=O)N[C@H](CCC(=O)OCC)C(=O)OCC)C(C)C)cc1OC | Active | Active | Active | Active | Active | Active | Active | Active | Active | Active | Active | Active | Active | Active | Active | Active | Active | Active | Active | Active | Activity (BMDC [21]): Active; Activity (PBMC [22]): inactive; Activity (BMDC [23]): Active; Activity (BMDC [24]): Active; Activity (PBMC [25]): Active; Activity [26]: Non-toxic; Activity [27]: Non-toxic; Activity [28]: Non-toxic; Activity (BMDC [29]): Active; Activity (BMDC [30]): Active; Activity (PBMC [31]): Active; Activity (PBMC [32]): Active |
